In ChEMBL document CHEMBL1128789, “Constrained analogs of KCVFM with improved inhibitory properties against farnesyl transferase” (Bioorg Med Chem Lett, 1995):

Target: Protein farnesyltransferase (Rattus norvegicus, UniProt Q02293+Q04631)
Assay: Inhibition of farnesyl transferase (FTase) of rat brain

Row | IC50 [µM] | SMILES
1 | 100 | CSCC[C@H](NC(=O)[C@@H]1Cc2ccccc2CN1C(=O)C(NC(=O)[C@H](S)NC(=O)C(N)CCCCN)C(C)C)C(=O)O (single isomer, unassigned; form 1)
2 | 100 | CSCC[C@H](NC(=O)[C@@H]1Cc2ccccc2CN1C(=O)[C@H](NC(=O)[C@H](CS)NC(=O)[C@@H](N)CCCCN)C(C)C)C(=O)O (stereo in doubt; form 1)
3 | 0.04 | CSCC[C@H](NC(=O)[C@@H]1Cc2ccccc2CN1C(=O)[C@@H](NC(=O)[C@H](S)NC(=O)[C@H](N)CCCCN)C(C)(C)C)C(=O)O
4 | 1 | CSCC[C@H](NC(=O)[C@@H](NC(=O)[C@H](C(C)C)N(C)C(=O)[C@H](S)NC(=O)[C@H](N)CCCCN)c1ccccc1)C(=O)O
5 | 1 | CSCC[C@H](NC(=O)[C@H](Cc1ccccc1)NC(=O)[C@@H](NC(=O)[C@H](S)NC(=O)[C@H](N)CCCCN)C(C)C)C(=O)O
6 | 1 | CSCC[C@H](NC(=O)[C@@H](NC(=O)[C@@H](NC(=O)[C@H](S)NC(=O)[C@H](N)CCCCN)C(C)(C)C)c1ccccc1)C(=O)O
7 | 0.02 | CSCC[C@H](NC(=O)[C@@H]1Cc2ccccc2CN1C(=O)[C@@H](NC(=O)[C@H](S)NC(=O)C(N)CCCCN)C(C)C)C(=O)O (single isomer, unassigned)
8 | 100 | CSCC[C@H](NC(=O)[C@H]1Cc2ccccc2CN1C(=O)[C@H]1CCCN1C(=O)[C@H](CS)NC(=O)[C@@H](N)CCCCN)C(=O)O
9 | 2 | CSCC[C@H](NC(=O)[C@@H]1Cc2ccccc2CN1C(=O)[C@@H]1CCCN1C(=O)[C@H](S)NC(=O)C(N)CCCCN)C(=O)O (single isomer, unassigned)
10 | 50 | CSCC[C@H](NC(=O)[C@@H]1Cc2ccccc2CN1C(=O)[C@H](NC(=O)[C@H](CS)NC(=O)[C@@H](N)CCCCN)C(C)C)C(=O)O (stereo in doubt; form 2)
11 | 1 | CSCC[C@H](NC(=O)[C@H](Cc1ccccc1)NC(=O)[C@H](C(C)C)N(C)C(=O)[C@H](S)NC(=O)[C@H](N)CCCCN)C(=O)O
12 | 15 | CSCC[C@H](NC(=O)[C@@H]1Cc2ccccc2CN1C(=O)C(NC(=O)[C@H](S)NC(=O)C(N)CCCCN)C(C)C)C(=O)O (single isomer, unassigned; form 2)
13 | 0.005 | CSCC[C@H](NC(=O)[C@@H]1Cc2ccccc2CN1C(=O)[C@H](C(C)C)N(C)C(=O)[C@H](S)NC(=O)[C@H](N)CCCCN)C(=O)O
